Key:
[1] = test system: mouse hepatoma cell line HepG2; assay: In-vitro anti-hepatoma activity, MTT cell growth inhibition, HepG2; type: cell-based; conditions: mouse hepatoma cell line HepG2, 72 hours
Method: (§1) Inoculatecancer cells in the logarithmic phase in each well of a 96-well culture plate (2×10^4 cells/well); add the drugs until the final concentrations of the drugs are 500, 250, 125, 62.5, 31.25, 15.625 and 7.8125 μg/mL, after culturing the cancer cells for 72 hours in a cell incubator with a CO2 concentration of 5%, add 10 μL of MTT to each well, incubate the cancer cells at 37° C. in darkness for 4 hours, remove the culture solution, add 150 μL of Dimethyl Sulfoxide (DMSO) or acidified isopropyl alcohol, after oscillating for 5 minutes, measure the Optical Density (OD) value at a wavelength of 570 nm; repeat the steps above for three times; set a blank control group; the cell lines use the same culture medium, which is a RPMI1640 culture medium containing 10% of FBS and 1% of double-antibody (penicillin and streptomycin).
(§2) 3. Calculation Formula of Cell Viability Cell viability=(experimental group OD value/control group OD value)×100%.
FIG. 10 is curve of inhibitory effect of a compound with Structural Formula (II) prepared in the first embodiment on cell growth of […] hepatoma cell line HepG2. […]

[2] = test system: mouse sarcoma cell line S180; assay: In-vitro anti-cancer activity, MTT cell growth inhibition, S180; type: cell-based; conditions: S-180, mouse sarcoma cell line S180, 72 hours
Method: as §1, §2
FIG. 11 is a curve of inhibitory effect of a compound with Structural Formula (II) prepared in the first embodiment on cell growth of mouse sarcoma cell line S180.

[3] = test system: human mononuclear lymphoma cells THP1; assay: In-vitro anti-lymphoma activity, MTT cell growth inhibition, THP1; type: cell-based; conditions: THP-1, human mononuclear lymphoma cells THP1, 72 hours
Method: as §1, §2
FIG. 13 is a curve of inhibitory effect of a compound with Structural Formula (II) prepared in the first embodiment on cell growth of human mononuclear lymphoma cells THP1. […]

HMG-CoA reductase = molecular target: T1, HMG-CoA reductase (Rattus norvegicus, UniProt P51639); assay: HMG-CoA reductase inhibitory activity experiment (OD340 decrease, rat liver microsomes); type: biochemical; conditions: for Slope: decreasing speed of OD340 within 5 minutes, 37° C., blank control slope 15.6
T1 construct: take out a male rat liver, after washing the male rat liver with a KESD buffer solution; from tissue; host or cells: male rat liver microsomes
T1 sequence (P51639 1-887): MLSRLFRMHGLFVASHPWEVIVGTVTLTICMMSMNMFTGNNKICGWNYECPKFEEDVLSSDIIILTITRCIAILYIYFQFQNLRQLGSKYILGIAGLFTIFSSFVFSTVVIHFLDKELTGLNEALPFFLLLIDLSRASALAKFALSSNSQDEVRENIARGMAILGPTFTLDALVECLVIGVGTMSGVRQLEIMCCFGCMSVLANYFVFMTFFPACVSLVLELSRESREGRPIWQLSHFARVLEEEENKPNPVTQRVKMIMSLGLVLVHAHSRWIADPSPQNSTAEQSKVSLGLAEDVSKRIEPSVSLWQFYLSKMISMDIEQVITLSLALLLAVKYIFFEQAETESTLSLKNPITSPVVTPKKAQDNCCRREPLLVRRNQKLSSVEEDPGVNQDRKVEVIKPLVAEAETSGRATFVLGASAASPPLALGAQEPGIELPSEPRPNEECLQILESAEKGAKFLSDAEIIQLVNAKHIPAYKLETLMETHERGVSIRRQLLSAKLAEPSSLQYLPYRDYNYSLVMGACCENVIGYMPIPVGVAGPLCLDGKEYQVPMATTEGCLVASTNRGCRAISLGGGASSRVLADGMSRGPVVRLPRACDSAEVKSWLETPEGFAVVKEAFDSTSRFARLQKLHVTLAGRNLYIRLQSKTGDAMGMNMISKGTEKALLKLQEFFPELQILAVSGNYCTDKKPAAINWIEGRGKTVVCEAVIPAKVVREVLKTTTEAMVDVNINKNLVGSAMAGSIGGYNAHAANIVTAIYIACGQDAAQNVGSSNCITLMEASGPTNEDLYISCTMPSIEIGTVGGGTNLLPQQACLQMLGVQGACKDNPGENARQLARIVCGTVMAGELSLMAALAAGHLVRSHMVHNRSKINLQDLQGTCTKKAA
Method: Rat liver microsomes (HMG-CoA reductase) that may be commercially available or prepared with reference to the following method: take out a male rat liver, after washing the male rat liver with a KESD buffer solution, perform 1200 g centrifugation for 15 minutes, take the supernatant, after performing 105000 g centrifugation again for 90 minutes twice, collect centrifugation sediments, add 8.3% glycerol to the centrifugation sediments, heating for 1 hour with a 37° C. warm bath, purify coarse rat liver microsomes with saturated ammonium sulfate, and collect 35-50% of the purified part. The obtained purified part may be stored in a refrigerator at −80° C.
Dissolve 5.0 mg of the compound with Structural Formula (II) prepared in the first embodiment, Compound 4 or Compound 5, and 2.0 mg of lovastatin with 1 mL of a 75% ethanol solution, respectively;
the total volume of measurement system is 250 μL and the concentrations of the constituents are: potassium chloride 200 mM, potassium dihydrogen phosphate 160 mM, ethylenediaminetetraacetic acid 4 mM and dithiothreitol 10 mM; the concentrations of two substrates NADPH and HMG-CoA are respectively 200 μM and 50 μM, pH6.8, enzyme 30 μL.
Add an ethanol solution with 5 μL of the compound prepared by the first embodiment or an ethanol solution of Compound 4 or an ethanol solution of Compound 5 to a test group, add 5 μL of a lovastatin ethanol solution to a positive control group; add 5 μL of 75% ethanol to a blank control group; detect dynamic change of OD340 on a Versamax microplate reader at 37° C., and evaluate the HMG-CoA reductase activity level by detecting the decreasing speed (represented by a slope value) of OD340 within 5 minutes to further evaluate the enzyme inhibitory activity level, the result is as shown in Table 1.

[4] = test system: mouse hepatoma cell line H22; assay: In-vitro anti-hepatoma activity, MTT cell growth inhibition, H22; type: cell-based; conditions: mouse hepatoma cell line H22, 72 hours, read-out: half maximal inhibitory concentration (IC50) value
Method: as §1, §2
FIG. 9 is a curve of inhibitory effect of a compound with Structural Formula (II) prepared in the first embodiment on cell growth of mouse hepatoma cell line H22. […]

[5] = test system: human tissue lymphoma cells U937; assay: In-vitro anti-lymphoma activity, MTT cell growth inhibition, U937; type: cell-based; conditions: U-937, human tissue lymphoma cells U937, 72 hours
Method: as §1, §2

[6] = test system: mouse lymphoma cells YAC-1; assay: In-vitro anti-lymphoma activity, MTT cell growth inhibition, YAC-1; type: cell-based; conditions: mouse lymphoma cells YAC-1, 72 hours
Method: as §1, §2
FIG. 12 is a curve of inhibitory effect of a compound with Structural Formula (II) prepared in the first embodiment on cell growth of mouse lymphoma cells YAC-1.

[7] = final concentration in the system 100 μg/mL
[8] = final concentration in the system 40 μg/mL

Compound | IC50 [1] [µg/mL] | IC50 [2] [µg/mL] | IC50 [3] [µg/mL] | Slope (HMG-CoA reductase; [7]) | Inhibitory rate (%) (HMG-CoA reductase; [7]) | IC50 [4] [µg/mL] | IC50 [5] [µg/mL] | IC50 [6] [µg/mL] | Slope (HMG-CoA reductase; [8]) | Inhibitory rate (%) (HMG-CoA reductase; [8])
C[C@@H](C(O)C1OC2C[C@@H]3[C@](C)(CC[C@H]4[C@@]35C=CC3(CC(O)CC[C@]43C)OO5)[C@H]2[C@@]1(C)O)C(C)(C)O (stereo partly shown) [Compound with Structural Formula (II), 5,8-epidioxy-16,22-epoxy-ergosta-6-en-3,20,23,25-tetrol] | ~400 | ~460 | ~400 | 10.7 | 31.4 | ~200 | ~320 | ~350 |  | 
CC[C@H](C)C(=O)O[C@H]1C[C@@H](C)C=C2C=C[C@H](C)[C@H](CC[C@@H]3C[C@@H](O)CC(=O)O3)[C@H]21 [Lovastatin, lovastatin, reference compound] |  |  |  |  |  |  |  |  | 9.0 | 42.3
